Source: EP0616804A1 (priority 1993, dated 1994)
“And” between values parts separate entries of the source, which are not always exact repeats. Identical values can stand only once. Like-named read-outs stand apart in the source and are kept apart here.

Assays:
[1] = Light/dark exploration test; format: in vivo, mouse; conditions: 10 mg/kg ip, total hours (32) referred to all animals, 8 animals, 4 hours; for Dark section: controls 14; for Lit section: controls 18
Protocol: The test is performed with a cage subdivided into two sections, a dark and a lit one.
Evidence was provided that the mice treated with adequate doses of anxiolytic drugs, e.g. Diazepam or Buspirone, spend a longer time in the lit section than controls.
The anxiolytic activity, if any, of the molecules can be evaluated on the basis of the time spent in the lit section.
The total duration of the test for each group of 8 animals was 4 hours.
The data are expressed as total hours (32) referred to all animals.

[2] = rats, ip; antidepressants and anxiolytics known to the prior art; cited from earlier work
Toxicity (LD50), Table 6 = conditions: rat, in vivo, rats, read-out: LD₅₀
Source text: The toxicity of gamma-hydroxybutyrate sodium salt to rats compared with antidepressants and anxiolytics known to the prior art is shown in Table 6.

[3] = Despair test (Porsolt behavioural test, duration of immobility); format: in vivo, Male Swiss mice (CD strain, Charles River); conditions: mice; for <%: decrease of immobility vs dose 0; for Duration of immobility: one hour before testing
Protocol: This behavioural test developed by R.D. Porsolt et al. (Arch. int. Pharmacodyn. 229, 327-336, 1977) is commonly used to evaluate the activity of antidepressant agents.
Male Swiss mice (CD strain, Charles River) weighing 30 g were used and assigned at random to the various treatment groups.
The mice were plunged individually into a Plexiglas cylinder of 25 cm in height and 9 cm in diameter, filled with water at 24°C, for a 6 min latency up to 6 cm from the upper lip.
The duration of the test was 6 minutes. The time during which the animal kept floating passively was measured starting from the 2nd minute (duration of immobility).
One hour before testing, sodium gamma-hydroxybutyrate (NaGHB) as an acqueous suspension additioned of non-ionic surfactant Tween was administered by i.p. injection in a volume of 10 ml/kg, or per os.
Blind tests were performed. The statistical analysis of the data was performed, whenever possible, by Student's t-test, otherwise by Mann Whitney's non-parametric test.

[4] = design: species or system Male Sprague-Dawley rats; conditions: rat, in vivo

## O=C1CC2(CCCC2)CC(=O)N1CCCCN1CCN(c2ncccn2)CC1 [Buspirone]
[1]
  Dark section: 10 total hours
  Lit section: 22 total hours
[2]
  LD₅₀: 136 mg/kg

## CN1C(=O)CN=C(c2ccccc2)c2cc(Cl)ccc21 [Diazepam]
[1]
  Dark section: 7 total hours
  Lit section: 25 total hours

## O=C([O-])CCCO.[Na+] [NaGHB, sodium gamma-hydroxybutyrate]
Toxicity (LD50), Table 6; po, os
  LD50: 12400 mg/kg
Toxicity (LD50), Table 6; ip
  LD50: 3280 mg/kg
[3]; ip, 5 mg/kg
  <%: 15%
  Duration of immobility: 179 ± 24 s
[3]; ip, 10 mg/kg
  <%: 27%
  Duration of immobility: 153 ± 19 s
[3]; ip, 20 mg/kg
  <%: 36%
  Duration of immobility: 134 ± 26 s
[3]; ip, 40 mg/kg
  <%: 43%
  Duration of immobility: 120 ± 12 s
[3]; per os, 20 mg/kg
  <%: 17%
  Duration of immobility: 189 ± 23 s
[3]; per os, 50 mg/kg
  <%: 40%
  Duration of immobility: 137 ± 16 s
[3]; per os, 100 mg/kg
  <%: 42%
  Duration of immobility: 133 ± 31 s
[1]
  Dark section: 9 total hours
  Lit section: 23 total hours
[4]
  mean reaction time: decreased mean reaction time
  number of attempts to escape: increased number of attempts to escape
[4]; 10 mg/kg
  difference between the group of controls and the CNaGHB group: no significant difference
[4]; ip, 10 mg/kg
  Mean reaction time, mean ± S.E.: 5.76±0.34 and 5.4±1.0
  No. of escape failures, mean ± S.E.: 21.3±1.1 and 23.6±2.6
